Consider two compounds from patent publication US7087575B2, “Treating the effect of nicotine” (Mayo Foundation for Medical Education and Research, priority 2002, dated 2006).

Series [1] has as its system dopamine and its metabolites. Description: Dopamine and metabolites in striatum and PFC by HPLC-EC after in vivo treatment. The arrangement: species or system rat. As for the experimental part:
Striatal dopamine: Brain dopamine levels were analyzed using high performance liquid chromatography with electrochemical detection (HPLC-EC, ESA, Inc., Chemsford, Mass.), according to previously described procedures (Kilts et al. (1981) J. Chromatogr. 225:347–357; and Krstulovic (1982) J. Chromatogr. 229:1–34). Rats were sacrificed by decapitation, brains were removed, and the striatal tissue was weighed and homogenized in 10 volumes of ice-cold 0.1 N perchloric acid containing 10 mM EDTA. Tissue homogenates were centrifuged at 26,000×g for 10 minutes at 4° C. A 20 μl aliquot of the diluted supernatant was injected onto an HPLC system with an MD-150/RP-C18 column (ESA). The mobile phase contained 10% acetonitrile with 75 mM sodium dihydrogen phosphate, 1.7 mM 1-octane sulfonic acid sodium salt, 0.01% triethylamine, and 25 μM EDTA, pH 3.0. The flow rate was maintained at 0.5 ml/minute. The detector potentials were set at: 350 mV; E1:−175 mV and E2:250 mV. The concentration of dopamine in each sample was quantified by comparison of area under curve (AUC) between samples and external standards run on the same day.
Sprague Dawley rats were treated as described above. Animals were sacrificed on day 15 after being tested for locomotor activity. Striatal and PFC tissues were harvested on ice and frozen at −80° C. until being assayed for dopamine metabolism as detailed in Example 1.

In the next series the test system is norepinephrine. Description: Norepinephrine levels in brain tissue after in vivo treatment. The arrangement: species or system rat. As for the experimental part: Sprague Dawley rats were treated as described above. Animals were sacrificed on day 15 after being tested for locomotor activity. PFC sections were harvested on ice and frozen at −80° C. until being assayed for norepinephrine levels.

In another series the test system is Sprague Dawley rats. In words: Nicotine-induced locomotor activity, daily treatment for 15 days. The series is classed as in vivo, rat. On the procedure: (§1) Animals and treatment protocol: Male Sprague-Dawley rats weighing 200–250 g were housed in a temperature-controlled room with free access to food and water under artificial 12 hour light/dark cycle. All tests were conducted during the light cycle. The animals received an intraperitoneal (i.p.) injection of either NT69L (1 mg/kg) or an equivalent volume (100 μl) of saline. Thirty minutes after the first injection, the rats received subcutaneous (s.c.) injections of saline or nicotine (0.35 mg/kg). These injections were repeated once a day for 15 days. On days 1 and 15, rats were placed in a Plexiglass Opto-Varimax Minor motility chamber (Columbus Instruments, Columbus, Ohio) and allowed to acclimate for one hour. Baseline activity was recorded for 30 minutes for each rat. The rats then were injected with either saline or NT69L and replaced in the chamber. After 30 minutes, each rat was injected with either saline or nicotine and returned to the chamber. Activity was recorded for 60 minutes. After testing for locomotor activity on day 15, animals were sacrificed. Brain sections were dissected on ice and maintained on dry ice until they were frozen at −80° C., at which temperature they were stored until being assayed. [^3H] cytisine binding: Nicotinic receptor binding sites in membrane homogenates of frozen tissue were measured using [^3H] cytisine according to the method of Pabreza et al. [(1991) Mol. Pharmacol. 39:9–12]. Frozen tissue was resuspended in 50 mM Tris-HCl buffer (pH 7.4), homogenized with a Brinkmann Polytron (setting 6), and washed twice in fresh Tris buffer by centrifugation at 35000×g. The resulting pellets were resuspended in buffer. Aliquots of homogenates were added to tubes containing [^3H] cytisine in the presence or absence of 100 μM nicotine and incubated in a final volume of 250 μl for 75 minutes at 4° C. The binding reactions were terminated by filtration through GF/B filter paper that was mounted on a Brandel cell harvester. Filters were presoaked in 0.5% polyethylenimine to reduce binding of radioligand to the filter. The filters were washed 3 times with cold 0.9% NaCl and counted in a scintillation counter. The data were analyzed using the PC version of the ligand software program. Specific binding was defined as the difference between binding in the presence and absence of 100 μM nicotine.
Sprague Dawley rats were divided into seven groups and injected daily for 14 days with the treatment listed outside the parentheses under each pair of columns in FIG. 1. On day 15, the rats were injected with the treatment listed inside the parentheses under each pair of columns. Locomotor activity was recorded on days 1 and 15. Rats were placed in a motility chamber for one hour for acclimation. A 30 minute baseline was recorded for each rat. The rats were injected with either saline or NT69L and placed in the chamber for 30 minutes. Each rat was then removed from the chamber, injected with either nicotine or saline, and returned to the chamber. Activity was recorded for 60 minutes, and is shown in counts per 10 minute interval.

The subject of another series is rats. Description: Nicotine sensitization, weekly treatment for six weeks, locomotor activity. Type of series: in vivo, rat. On the procedure: as §1
For a longer term study of nicotine sensitization, rats were divided into seven groups that were treated once a week for six weeks with saline or NT69L followed by a challenge with saline or 0.35 mg/kg nicotine. These experiments allowed examination of both the initiation and expression phases of sensitization. Group 1 received saline/saline each week. Group 2 received saline/saline for the first five weekly treatments, and saline/nicotine in the sixth week. Group 3 received saline/nicotine each week. Group 4 received NT69L/saline each week. Group 5 received NT69L/nicotine each week. Group 6 received NT69L/nicotine for the first five weekly treatments, and saline/nicotine in the sixth week. Group 7 received saline/nicotine for the first five weekly treatments, and NT69L/nicotine in the sixth week. Locomotor activity was measured after each weekly treatment, as described in Example 1.

In series [2] the test system is Nicotinic receptor binding sites. Description: [3H] cytisine binding in brain membrane homogenates after in vivo treatment. The arrangement: species or system rat. Conditions: for increase in cytisine binding in the VTA: vs saline control, only chronic injection of NT69L significant (P<0.05). On the procedure: as §1
Sprague Dawley rats were maintained and treated as described above. Animals were sacrificed on day 15 after being tested for locomotor activity. PFC and VTA sections were harvested on ice and frozen at −80° C until being assayed for cytisine binding as described in Example 1.

The subject of a further series is dopamine D2 receptor. In words: Dopamine D2 receptor binding assay ([3H] raclopride) in striatum after in vivo treatment. The arrangement: species or system rat. On the procedure:
Dopamine D2 receptor binding assay: Homogenized brain tissue was assayed for dopamine D2 receptor binding by the method of Bowden et al. [(1997) Brain Res. 752:227–233]. Briefly, brain tissue was homogenized in buffer (50 mM Tris-HCl, 5 mM KCl and 120 mM NaCl, pH 7.5) and centrifuged at 26,000×g for 10 minutes at 4° C. Pellets were resuspended in buffer to 1 mg/10 μl and immediately used for binding. Aliquots of […] tissue homogenates were added to 25 PI [^3H] raclopride and 25 μl buffer (for total binding) or 25 μl of […] sulipride (for nonspecific binding) in a total volume of 250 μl, and incubated at room temperature for 90 minutes. Membrane-bound radioactivity was recovered by filtration under vacuum through Whatman GF/B filters using a Brandel cell harvester. Filters were washed with ice-cold PBS and radioactivity was determined by liquid scintillation counting. Protein levels were quantified using the Micro BCA assay (Pierce, Rockford, Ill.).

As to `CN1CCCC1c1cccnc1` (stereo not shown) [nicotine], in series [1] (PFC, fifteen daily injections of nicotine), the “levels of dopamine and its metabolites as compared to saline control” value amounted to 232%. For the same compound, the “increase in levels of dopamine and its metabolites” value in series [1] (PFC, single injection of nicotine, P<0.05) came out at 400%. Further, the “increase in striatal dopamine levels” value in series [1] (striatum, single injection of nicotine vs sal/sal(sal/sal), P<0.05) came to 192%. Further, in the series on norepinephrine (acute and chronic treatment with nicotine vs saline control, P<0.05), the “increase of norepinephrine levels in the PFC” value is recorded as 213–300%. In addition, the “increase in peak activity (sensitization)” value with Sprague Dawley rats (daily nicotine injections, day 1 vs. day 15) is on record as over 60%. In addition, in the series on Sprague Dawley rats (single injection of nicotine 0.35 mg/kg s.c. vs control group sal/sal(sal/sal), P<0.001), the “peak level of locomotor activity” value is given as “significantly increased”. Further, the “locomotor activity after nicotine challenge without NT69L” value in the series with rats (nicotine 0.35 mg/kg in the sixth week only (group 2)) is listed as “resulted in hyperactivity”; in the series on rats (nicotine challenge each week (group 3)) it was “resulted in increased activity”. Moreover, the “increase of cytisine binding in prefrontal cortex” value in series [2] (fifteen daily injections of nicotine vs saline control, P<0.05) is recorded as 62%. Besides, the “cytisine binding in the PFC” value in series [2] (single nicotine injection on day 15 vs sal/sal(sal/sal)) was “tended to increase cytisine binding in the PFC, but not to a significant level”. For the same compound, the “increase in cytisine binding in the VTA” value in series [2] is listed as 35%.
Regarding “N-methyl-Arg-Lys-Pro-L-neo-Trp-tert-Leu-Leu [NT69L]”, the “dopamine (D2) receptor binding in striatum across nicotine and NT69L treatment groups” value with dopamine D2 receptor was “No difference”. In addition, the “lowering of the nicotine-induced increase in dopamine” value in series [1] (PFC, injection of NT69L for 15 days) turned out to be 62%; in series [1] (PFC, pretreating with NT69L before nicotine injection on day 15) it was 28%. Also, the “effect on dopamine levels in the striatum” value in series [1] (pretreatment with NT69L) was “did not significantly affect”. Besides, the “reduction in norepinephrine levels” value in the series on norepinephrine (PFC, daily injections of NT69L, single injection of nicotine) is on record as 40%. Besides, the “norepinephrine in the striatum between treatment groups” value in the series with norepinephrine (striatum) is “No significant differences”. In addition, in the series on Sprague Dawley rats (acute injection of NT69L 1 mg/kg i.p. on day 1, 30 minutes prior to nicotine, P<0.001), the “reduction of nicotine-induced hyperactivity” value was 24%. The “reduction of the magnitude of locomotor sensitization” value with Sprague Dawley rats (daily injection of NT69L) was determined as 24%. For the same compound, in the series with Sprague Dawley rats (day 1, NT69L 1 mg/kg i.p. without nicotine), the “locomotor activity 69/sal vs sal/sal groups (sedation)” value is listed as “no significant difference”. In the series with Sprague Dawley rats (sal/nic(sal/nic) vs. 69/nic(69/nic), P<0.05), the “activity compared with saline after fifteen days of treatment” value was “statistically significant reduction in activity”. For the same compound, in the series on Sprague Dawley rats (single injection of NT69L 30 minutes prior to nicotine on the fifteenth day of nicotine administration, P<0.001), the “sensitized nicotine-induced activity after NT69L” value is 10 % of control. Also, in the series with rats (NT69L before nicotine challenge each week (group 5)), the “effect on nicotine-induced hyperactivity” value was “largely prevented the hyperactivity”. The “activity after NT69L in the sixth week” value in the series on rats (five weeks nicotine without NT69L, then NT69L/nicotine in week six (group 7)) is given as “significant decrease in activity”. For the same compound, the “initiation and expression of nicotine sensitization” value in the series on rats (weekly treatment for six weeks) is recorded as “effectively blocked”. Also, in series [2] (PFC, NT69L daily for 15 days, acute, but not chronic, nicotine), the “reduction of cytisine binding caused by acute nicotine injection” value is reported as 62%. In addition, in series [2] (PFC, acute injection of NT69L prior to nicotine on day fifteen), the “reduction of the increase in cytisine binding caused by 15 daily injections of nicotine” value came to 65%. Further, the “increase in cytisine binding in the VTA” value in series [2] is given as 35%.
